Measurements from ChEMBL document CHEMBL1133456, “Synthesis and anticonvulsant activity of novel and potent 6,7-methylenedioxyphthalazin-1(2H)-ones” (J Med Chem, 2000).

What was measured:
[1] = Relative lipophilicity expressed as Rm value; type: physicochemical; conditions: octanol/water
[2] = Anticonvulsant activity against audiogenic seizures in DBA/2 mice expressed as ED50 values in clonic phase; type: functional; conditions: Mus musculus
[3] = Anticonvulsant activity against audiogenic seizures in DBA/2 mice expressed as ED50 values in tonic phase; type: functional; conditions: Mus musculus
[4] = Toxic dose in DBA/2 mice; type: toxicity; conditions: DBA/2, mouse, in vivo
[5] = Ratio between TD50 and ED50 from the clonic phase of audiogenic seizures; type: ADME; conditions: read-out: Protective index
[6] = Anticonvulsant activity against audiogenic seizures in DBA/2 mice in clonic phase at a time interval of 30 min after intraperitoneal administration; Values ranges from: 9.04-49.8; type: functional; conditions: Mus musculus, ip, 0.5 h
[7] = Anticonvulsant activity against audiogenic seizures in DBA/2 mice in clonic phase at a time interval of 45 min after intraperitoneal administration; Values ranges from: 13.8-41.2; type: functional; conditions: Mus musculus, ip, 0.75 h
[8] = Anticonvulsant activity against audiogenic seizures in DBA/2 mice in clonic phase at a time interval of 60 min after intraperitoneal administration; Values ranges from: 18.8-47.0; type: functional; conditions: Mus musculus, ip, 1 h
[9] = Anticonvulsant activity against audiogenic seizures in DBA/2 mice after pretreatment with Aniracetam expressed as ED50 values in clonic phase; Values ranges from: 40.9-79.2; type: functional; conditions: Mus musculus
[10] = Anticonvulsant activity against audiogenic seizures in DBA/2 mice after pretreatment with Aniracetam expressed as ED50 values in tonic phase; Values ranges from: 21.9-46.8; type: functional; conditions: Mus musculus
[11] = Anticonvulsant activity against audiogenic seizures in DBA/2 mice in clonic phase at a time interval of 90 min after intraperitoneal administration; Values ranges from: 30.5-62.3; type: functional; conditions: Mus musculus, ip, 1.5 h
[12] = Anticonvulsant activity against audiogenic seizures in DBA/2 mice expressed as ED50 values in clonic phase; Values ranges from: 9.04-49.8; type: functional; conditions: Mus musculus
[13] = Anticonvulsant activity against audiogenic seizures in DBA/2 mice expressed as ED50 values in tonic phase; Values ranges from: 2.47-23.1; type: functional; conditions: Mus musculus
[14] = Anticonvulsant activity against audiogenic seizures in DBA/2 mice in clonic phase at a time interval of 120 min after intraperitoneal administration; type: functional; conditions: Mus musculus, ip, 2 h
[15] = Anticonvulsant activity against audiogenic seizures in DBA/2 mice in clonic phase at a time interval of 15 min after intraperitoneal administration; Values ranges from: 25.1-42.6; type: functional; conditions: Mus musculus, ip, 0.25 h
[16] = Anticonvulsant activity against ATPA induced seizures in DBA/2 mice expressed as ED50 values in tonic phase; Values ranges from: 22.7-44.8; type: functional; conditions: Mus musculus
[17] = Anticonvulsant activity against AMPA induced seizures in DBA/2 mice expressed as ED50 values in clonic phase; Values ranges from: 27.1-47.3; type: functional; conditions: Mus musculus
[18] = Anticonvulsant activity against ATPA induced seizures in DBA/2 mice expressed as ED50 values in clonic phase; Values ranges from: 25.8-57.7; type: functional; conditions: Mus musculus
[19] = Toxic dose in DBA/2 mice; Values ranges from: 44.3-81.6; type: toxicity; conditions: DBA/2, mouse, in vivo
[20] = Anticonvulsant activity against KA induced seizures in swiss mice; Values ranges from: 30.3-50.1; type: functional; conditions: Mus musculus
[21] = Anticonvulsant activity against Pentylenetetrazole (PTZ) induced seizures in Swiss mice; Values ranges from: 30.9-78.8; type: functional; conditions: Mus musculus
[22] = Anticonvulsant activity against maximal electroshock (MES) induced seizures in Swiss mice; Values ranges from: 29.9-57.3; type: functional; conditions: Mus musculus
[23] = Ratio between TD50 and ED50 from the clonic phase of audiogenic seizures in mice; type: ADME, organism-based; conditions: mouse, in vivo; read-out: Protective index
[24] = Anticonvulsant activity against AMPA induced seizures in DBA/2 mice expressed as ED50 values in tonic phase; Values ranges from: 32.6-62.7; type: functional; conditions: Mus musculus
[25] = Anticonvulsant activity against audiogenic seizures in DBA/2 mice in clonic phase at a time interval of 30 min; type: functional; conditions: Mus musculus, 0.5 h
[26] = Anticonvulsant activity against audiogenic seizures in DBA/2 mice in clonic phase at a time interval of 45 min; type: functional; conditions: Mus musculus, 0.75 h
[27] = Anticonvulsant activity against audiogenic seizures in DBA/2 mice in clonic phase at a time interval of 60 min; type: functional; conditions: Mus musculus, 1 h
[28] = Anticonvulsant activity against audiogenic seizures in DBA/2 mice in clonic phase at a time interval of 90 min; type: functional; conditions: Mus musculus, 1.5 h
[29] = Anticonvulsant activity against KA induced seizures in DBA/2 mice; type: functional; conditions: Mus musculus
[30] = Anticonvulsant activity against AMPA induced seizures in DBA/2 mice expressed as ED50 values in clonic phase; type: functional; conditions: Mus musculus
[31] = Anticonvulsant activity against audiogenic seizures in DBA/2 mice after pretreatment with Aniracetam expressed as ED50 values in clonic phase; type: functional, Mus musculus
[32] = Anticonvulsant activity against audiogenic seizures in DBA/2 mice in clonic phase at a time interval of 120 min; type: functional; conditions: Mus musculus, 2 h
[33] = Anticonvulsant activity against audiogenic seizures in DBA/2 mice in clonic phase at a time interval of 15 min; type: functional; conditions: Mus musculus, 0.25 h
[34] = Anticonvulsant activity against AMPA induced seizures in DBA/2 mice expressed as ED50 values in tonic phase; type: functional; conditions: Mus musculus
[35] = Anticonvulsant activity against ATPA induced seizures in DBA/2 mice expressed as ED50 values in clonic phase; type: functional; conditions: Mus musculus
[36] = Anticonvulsant activity against ATPA induced seizures in DBA/2 mice expressed as ED50 values in tonic phase; type: functional; conditions: Mus musculus
[37] = Anticonvulsant activity against Pentylenetetrazole (PTZ) induced seizures in Swiss mice.; type: functional; conditions: Mus musculus
[38] = Anticonvulsant activity against maximal electroshock (MES) induced seizures in Swiss mice.; type: functional; conditions: Mus musculus
[39] = Anticonvulsant activity against audiogenic seizures in DBA/2 mice in clonic phase at a time interval of 45 min after intraperitoneal administration; Values ranges from: 27.2-52.1; type: functional; conditions: Mus musculus, ip, 0.75 h
[40] = Anticonvulsant activity against ATPA induced seizures in DBA/2 mice. activity is expressed as ED50 values in tonus phase; Values ranges from: 32.4-57.3; type: functional; conditions: Mus musculus
[41] = Anticonvulsant activity against ATPA induced seizures in DBA/2 mice. activity is expressed as ED50 values in clonus phase; Values ranges from: 45.4-89.7; type: functional; conditions: Mus musculus
[42] = Toxic does was determined in DBA/2 mice; Values ranges from: 47.5-122; type: toxicity; conditions: DBA/2, mouse
[43] = Toxic dose in DBA/2 mice; Values ranges from: 82.6-306; type: toxicity; conditions: DBA/2, mouse, in vivo
[44] = Anticonvulsant activity against audiogenic seizures in DBA/2 mice expressed as ED50 values in clonic phase; […]; type: functional; conditions: Mus musculus
[45] = Anticonvulsant activity against audiogenic seizures in DBA/2 mice expressed as ED50 values in tonic phase; Values ranges from: 8.98-27.3; type: functional; conditions: Mus musculus
[46] = Toxic dose in DBA/2 mice; Values ranges from: 59.5-88.2; type: toxicity; conditions: DBA/2, mouse, in vivo
[47] = Toxic dose in DBA/2 mice; Values ranges from: 52.0-194; type: toxicity; conditions: DBA/2, mouse, in vivo

Question: Which Rm [1] does the source give for `CCCCNC(=O)n1nc(-c2cccc(N)c2)c2cc3c(cc2c1=O)OCO3` here?
Answer: 0.01

Question: What about the ED50 [2] of the same compound?
Answer: 31.6 µmol/kg

Question: And the ED50 [3]?
Answer: 22.4 µmol/kg

Question: What about the TD50 [4] of the same compound?
Answer: 101 µmol/kg

Question: And the selectivity ratio [5]?
Answer: 3.2

Question: With `Nc1ccc(-c2nnc(O)c3cc4c(cc23)OCO4)cc1` as the compound, how does the Rm [1] read?
Answer: -0.454

Question: And the ED50 [6]?
Answer: 21.2 µmol/kg

Question: What about the ED50 [7] of the same compound?
Answer: 23.8 µmol/kg

Question: And the ED50 [8]?
Answer: 29.7 µmol/kg

Question: What about the ED50 [9] of the same compound?
Answer: 56.9 µmol/kg

Question: And the ED50 [10]?
Answer: 32 µmol/kg

Question: And the ED50 [11]?
Answer: 43.6 µmol/kg

Question: And the ED50 [12]?
Answer: 21.2 µmol/kg

Question: What about the ED50 [13] of the same compound?
Answer: 7.56 µmol/kg

Question: What about the ED50 [14] of the same compound?
Answer: > 50 µmol/kg

Question: And the ED50 [15]?
Answer: 32.7 µmol/kg

Question: What about the ED50 [16] of the same compound?
Answer: 31.9 µmol/kg

Question: What about the ED50 [17] of the same compound?
Answer: 35.8 µmol/kg

Question: And the ED50 [18]?
Answer: 38.6 µmol/kg

Question: What about the TD50 [19] of the same compound?
Answer: 60.1 µmol/kg

Question: What about the ED50 [20] of the same compound?
Answer: 38.9 µmol/kg

Question: What about the ED50 [21] of the same compound?
Answer: 49.4 µmol/kg

Question: What about the ED50 [22] of the same compound?
Answer: 41.4 µmol/kg

Question: And the selectivity ratio [23]?
Answer: 2.8

Question: What about the ED50 [24] of the same compound?
Answer: 45.2 µmol/kg

Question: What does the source list for `CCCCNC(=O)n1nc(-c2ccc(N)cc2)c2cc3c(cc2c1=O)OCO3`?
Answer: Rm [1]: 0.002; ED50 [25]: 3.25 µmol/kg; ED50 [26]: 8.63 µmol/kg; ED50 [27]: 11.2 µmol/kg; ED50 [28]: 26.6 µmol/kg; ED50 [29]: 36.2 µmol/kg; ED50 [30]: 37 µmol/kg; ED50 [31]: 12.3 µM/kg; ED50 ([31]; Mus musculus, read-out: ED50): 17.6 µmol/kg; ED50 [2]: 3.25 µmol/kg; ED50 [3]: 2.23 µmol/kg; ED50 [32]: 44.1 µmol/kg; ED50 [33]: 13.9 µmol/kg; ED50 [34]: 47.4 µmol/kg; ED50 [35]: 36.2 µmol/kg; ED50 [36]: 30.1 µmol/kg; TD50 [4]: 20.4 µmol/kg; ED50 [37]: 41.9 µmol/kg; ED50 [38]: 33.1 µmol/kg; selectivity ratio [5]: 6.3

Question: For `CC1=NN=C(c2ccc(N)cc2)c2cc3c(cc2C1)OCO3` [GYKI-52466], which Rm [1] is on record?
Answer: -0.304

Question: And the ED50 [39]?
Answer: 37.3 µmol/kg

Question: What about the ED50 [40] of the same compound?
Answer: 43.1 µmol/kg

Question: What about the ED50 [41] of the same compound?
Answer: 63.8 µmol/kg

Question: What about the TD50 [42] of the same compound?
Answer: 76.1 µmol/kg

Question: What about the selectivity ratio [23] of the same compound?
Answer: 2.1

Question: Which Rm [1] does the source give for `O=C1Cc2cc3c(cc2C(c2ccccc2)=NN1)OCO3` here?
Answer: -0.142

Question: And the TD50 [43]?
Answer: 159 µmol/kg

Question: What about the selectivity ratio [23] of the same compound?
Answer: 3.7

Question: What does the source list for `CCCNC(=O)n1nc(-c2ccc(N)cc2)c2cc3c(cc2c1=O)OCO3`?
Answer: Rm [1]: -0.126; ED50 [2]: 15.8 µmol/kg; ED50 [3]: 6.82 µmol/kg; TD50 [4]: 52.8 µmol/kg; selectivity ratio [5]: 3.3

Question: With `Nc1cccc(-c2nnc(O)c3cc4c(cc23)OCO4)c1` as the compound, how does the Rm [1] read?
Answer: -0.399

Question: And the ED50 [44]?
Answer: 23.3 µmol/kg

Question: And the ED50 [45]?
Answer: 15.7 µmol/kg

Question: What about the TD50 [46] of the same compound?
Answer: 72.4 µmol/kg

Question: And the selectivity ratio [23]?
Answer: 3.1

Question: Which Rm [1] does the source give for `Nc1cccc(C2=NNC(=O)Cc3cc4c(cc32)OCO4)c1` here?
Answer: -0.372

Question: And the TD50 [47]?
Answer: 101 µmol/kg

Question: What about the selectivity ratio [23] of the same compound?
Answer: 5.6
